Laboratory results reported in the NIST ThermoML archive (doi:10.1016/j.jct.2019.05.011).
Numbers after ± are expanded uncertainties.

Experiment: activity coefficient (dimensionless); of the first substance listed, at infinite dilution; xn = mol fraction of the nth substance listed
Settings: 101.33 kPa, Liquid, Chromatography, x1 = 0

activity coefficient (313.15 K) | activity coefficient (323.15 K) | activity coefficient (333.15 K) | activity coefficient (343.15 K) | activity coefficient (298.15 K) | Compound
0.98 ± 0.06 | 1.04 ± 0.07 | 1.15 ± 0.07 | 1.18 ± 0.08 |  | C=CCCCCCCCC [1-decene] + CC(CC(C)(C)C)CP(=O)([O-])CC(C)CC(C)(C)C.CCCCCCCCCCCCCC[P+](CCCCCC)(CCCCCC)CCCCCC
0.77 ± 0.05 | 0.81 ± 0.05 | 0.88 ± 0.06 | 0.95 ± 0.06 |  | C=CCCCCC [1-heptene] + CC(CC(C)(C)C)CP(=O)([O-])CC(C)CC(C)(C)C.CCCCCCCCCCCCCC[P+](CCCCCC)(CCCCCC)CCCCCC
0.91 ± 0.06 | 0.95 ± 0.06 | 1.08 ± 0.07 | 1.14 ± 0.07 |  | C=CCCCCCCC [1-nonene] + CC(CC(C)(C)C)CP(=O)([O-])CC(C)CC(C)(C)C.CCCCCCCCCCCCCC[P+](CCCCCC)(CCCCCC)CCCCCC
0.92 ± 0.06 | 0.96 ± 0.06 | 1.04 ± 0.07 | 1.14 ± 0.07 |  | CC(C)CC(C)(C)C [2,2,4-trimethylpentane] + CC(CC(C)(C)C)CP(=O)([O-])CC(C)CC(C)(C)C.CCCCCCCCCCCCCC[P+](CCCCCC)(CCCCCC)CCCCCC
0.78 ± 0.05 | 0.82 ± 0.05 | 0.9 ± 0.06 | 0.97 ± 0.06 |  | CCC(C)(C)C [2,2-dimethylbutane] + CC(CC(C)(C)C)CP(=O)([O-])CC(C)CC(C)(C)C.CCCCCCCCCCCCCC[P+](CCCCCC)(CCCCCC)CCCCCC
1.34 ± 0.09 | 1.4 ± 0.09 | 1.41 ± 0.09 | 1.46 ± 0.1 |  | CC#N [acetonitrile] + CC(CC(C)(C)C)CP(=O)([O-])CC(C)CC(C)(C)C.CCCCCCCCCCCCCC[P+](CCCCCC)(CCCCCC)CCCCCC
0.42 ± 0.04 | 0.45 ± 0.04 | 0.49 ± 0.04 | 0.52 ± 0.04 |  | c1ccccc1 [benzene] + CC(CC(C)(C)C)CP(=O)([O-])CC(C)CC(C)(C)C.CCCCCCCCCCCCCC[P+](CCCCCC)(CCCCCC)CCCCCC
 |  | 0.11 ± 0.03 | 0.12 ± 0.03 |  | CCCCO [butan-1-ol] + CC(CC(C)(C)C)CP(=O)([O-])CC(C)CC(C)(C)C.CCCCCCCCCCCCCC[P+](CCCCCC)(CCCCCC)CCCCCC
0.57 ± 0.04 | 0.59 ± 0.04 | 0.64 ± 0.04 | 0.68 ± 0.05 |  | C1=CCCCC1 [cyclohexene] + CC(CC(C)(C)C)CP(=O)([O-])CC(C)CC(C)(C)C.CCCCCCCCCCCCCC[P+](CCCCCC)(CCCCCC)CCCCCC
0.7 ± 0.05 | 0.71 ± 0.05 | 0.77 ± 0.05 | 0.79 ± 0.05 |  | C1CCCCCCC1 [cyclooctane] + CC(CC(C)(C)C)CP(=O)([O-])CC(C)CC(C)(C)C.CCCCCCCCCCCCCC[P+](CCCCCC)(CCCCCC)CCCCCC
1.22 ± 0.08 | 1.28 ± 0.08 | 1.33 ± 0.09 | 1.39 ± 0.09 |  | CCCCCCCCCC [decane] + CC(CC(C)(C)C)CP(=O)([O-])CC(C)CC(C)(C)C.CCCCCCCCCCCCCC[P+](CCCCCC)(CCCCCC)CCCCCC
 | 0.04 | 0.06 | 0.07 ± 0.03 |  | CCO [ethanol] + CC(CC(C)(C)C)CP(=O)([O-])CC(C)CC(C)(C)C.CCCCCCCCCCCCCC[P+](CCCCCC)(CCCCCC)CCCCCC
0.57 ± 0.04 | 0.6 ± 0.04 | 0.65 ± 0.04 | 0.68 ± 0.05 |  | CCc1ccccc1 [ethylbenzene] + CC(CC(C)(C)C)CP(=O)([O-])CC(C)CC(C)(C)C.CCCCCCCCCCCCCC[P+](CCCCCC)(CCCCCC)CCCCCC
 |  |  |  | 0.874 ± 0.056 | CCCCCC [hexane] + CCCCCCCCCCCCCCCC
0.03 | 0.04 | 0.05 | 0.06 |  | CO [methanol] + CC(CC(C)(C)C)CP(=O)([O-])CC(C)CC(C)(C)C.CCCCCCCCCCCCCC[P+](CCCCCC)(CCCCCC)CCCCCC
0.64 ± 0.04 | 0.68 ± 0.05 | 0.73 ± 0.05 | 0.78 ± 0.05 |  | CC1CCCCC1 [methylcyclohexane] + CC(CC(C)(C)C)CP(=O)([O-])CC(C)CC(C)(C)C.CCCCCCCCCCCCCC[P+](CCCCCC)(CCCCCC)CCCCCC
1.04 ± 0.07 | 1.11 ± 0.07 | 1.23 ± 0.08 | 1.25 ± 0.08 |  | CCCCCCCCC [nonane] + CC(CC(C)(C)C)CP(=O)([O-])CC(C)CC(C)(C)C.CCCCCCCCCCCCCC[P+](CCCCCC)(CCCCCC)CCCCCC
 | 0.07 ± 0.03 | 0.08 ± 0.03 | 0.09 ± 0.03 |  | CCCO [propan-1-ol] + CC(CC(C)(C)C)CP(=O)([O-])CC(C)CC(C)(C)C.CCCCCCCCCCCCCC[P+](CCCCCC)(CCCCCC)CCCCCC
0.43 ± 0.04 | 0.45 ± 0.04 | 0.49 ± 0.04 | 0.52 ± 0.04 |  | C1CCOC1 [tetrahydrofuran] + CC(CC(C)(C)C)CP(=O)([O-])CC(C)CC(C)(C)C.CCCCCCCCCCCCCC[P+](CCCCCC)(CCCCCC)CCCCCC
0.35 ± 0.03 | 0.4 ± 0.03 | 0.41 ± 0.03 | 0.44 ± 0.04 |  | c1ccsc1 [thiophene] + CC(CC(C)(C)C)CP(=O)([O-])CC(C)CC(C)(C)C.CCCCCCCCCCCCCC[P+](CCCCCC)(CCCCCC)CCCCCC
0.26 ± 0.03 | 0.27 ± 0.03 | 0.3 ± 0.03 | 0.31 ± 0.03 |  | O [water] + CC(CC(C)(C)C)CP(=O)([O-])CC(C)CC(C)(C)C.CCCCCCCCCCCCCC[P+](CCCCCC)(CCCCCC)CCCCCC

Compound | activity coefficient (313.15 K) | activity coefficient (323.15 K) | activity coefficient (333.15 K) | activity coefficient (343.15 K) | activity coefficient (298.15 K)
Cc1ccccc1C [1,2-dimethylbenzene] + CC(CC(C)(C)C)CP(=O)([O-])CC(C)CC(C)(C)C.CCCCCCCCCCCCCC[P+](CCCCCC)(CCCCCC)CCCCCC | 0.6 ± 0.04 | 0.62 ± 0.04 | 0.64 ± 0.04 | 0.67 ± 0.05 | 
Cc1cccc(C)c1 [1,3-dimethylbenzene] + CC(CC(C)(C)C)CP(=O)([O-])CC(C)CC(C)(C)C.CCCCCCCCCCCCCC[P+](CCCCCC)(CCCCCC)CCCCCC | 0.63 ± 0.04 | 0.65 ± 0.04 | 0.67 ± 0.05 | 0.7 ± 0.05 | 
Cc1ccc(C)cc1 [1,4-dimethylbenzene] + CC(CC(C)(C)C)CP(=O)([O-])CC(C)CC(C)(C)C.CCCCCCCCCCCCCC[P+](CCCCCC)(CCCCCC)CCCCCC | 0.6 ± 0.04 | 0.63 ± 0.04 | 0.65 ± 0.04 | 0.69 ± 0.05 | 
CC(C)=O [acetone] + CC(CC(C)(C)C)CP(=O)([O-])CC(C)CC(C)(C)C.CCCCCCCCCCCCCC[P+](CCCCCC)(CCCCCC)CCCCCC | 0.7 ± 0.05 | 0.72 ± 0.05 | 0.78 ± 0.05 | 0.83 ± 0.05 | 
CCC(C)=O [butanone] + CC(CC(C)(C)C)CP(=O)([O-])CC(C)CC(C)(C)C.CCCCCCCCCCCCCC[P+](CCCCCC)(CCCCCC)CCCCCC | 0.65 ± 0.04 | 0.67 ± 0.05 | 0.72 ± 0.05 | 0.77 ± 0.05 | 
Cc1ccccc1 [toluene] + CC(CC(C)(C)C)CP(=O)([O-])CC(C)CC(C)(C)C.CCCCCCCCCCCCCC[P+](CCCCCC)(CCCCCC)CCCCCC | 0.5 ± 0.04 | 0.51 ± 0.04 | 0.56 ± 0.04 | 0.59 ± 0.04 | 
